Measurements from US11498933B2, “Prodrug compositions” (The University of Liverpool, priority 2017, dated 2022).
Blank lines part the entries; values can stand above or below the compound they belong to.

Key:
[1] = Kinetic analysis of 5′-acyloxy/alkoxycarbonyl prodrug hydrolysis in human liver S9 (HPLC-UV); type: in vitro ADME; settings: for half-lives in human liver S9: FIG. 7; for Km: both sexes, human, pooled human liver S9, pH 7.4, 17: 5′-acetoxy hydrolysis, 1.0 mg/mL S9, 5: 5′-pentoxycarbonyl hydrolysis, 3.0 mg/mL S9, 37° C.; for Km / Intrinsic Clearance / Vmax: conversion to compound 13; for Intrinsic Clearance / Vmax: 17: 1.0 mg/mL S9, 5: 3.0 mg/mL S9
Protocol: A reaction mixture containing Tris buffer (30 mM, pH 7.4) and mixed pooled gender liver S9 (1 mg/mL, 3.0 mg/mL, or 4.0 mg/mL) are pre-incubated at 37° C. for 5 minutes. To the reaction mixtures is added compound 17 which initiates the hydrolysis reaction (concentrations of compound 17 ranging from 200 μM to 10 mM). […] The supernatant was diluted into Tris buffer (30 mM, pH 7.4) to yield samples with concentrations appropriate for analysis. The samples were analyzed by HPLC with UV detection using the following method (0% to 100% acetonitrile in Et3NHOAc (50 mM, pH 8) gradient) over 10 minutes at a flow rate of 3 mL min^−1, held at 100% acetonitrile for 3 minutes, ramped down to 5% acetonitrile over 0.2 minutes and then held for 2.8 minutes.
Kinetic analysis data for the conversion of compound 17 to compound 13 via 5′-acetoxy hydrolysis is illustrated in FIG. 5. The hydrolysis was performed under conditions in which the pentyl carbamate group of compound 17 is stable in 1.0 mg/mL pooled mixed gender human liver S9. It was observed that the intrinsic clearance for the 5′-acetoxy hydrolysis is greater than that for the carbamate group hydrolysis.
Kinetic analysis data for the conversion of compound 5 to compound 13 via 5′-pentoxycarbonyl hydrolysis is illustrated in FIG. 6 (concentrations of compound 5 ranging from 200 μM to 10 mM). The hydrolysis was performed under conditions in which the pentyl carbamate group is stable in 3.0 mg/mL pooled mixed gender human liver S9. It was observed that the intrinsic clearance for 5′-pentoxycarbonyl hydrolysis is greater than that for carbamate group hydrolysis but reduced when compared to the intrinsic clearance of the 5′-acetoxy hydrolysis. Kinetic analysis data for the conversion of compound 17 to compound 13 via 5′-acetoxy hydrolysis and the conversion of compound 5 to compound 13 via 5′-pentoxycarbonyl hydrolysis is presented in Table 1 below.
Kinetic analysis data for compounds 20 and 21 in human liver S9 was generated in accordance with the general procedure described above.

[2] = Prodrug hydrolysis in human liver S9; type: in vitro ADME; settings: pH 7.4, human liver S9 1.0 mg/mL, 37° C., depletion of starting material, read-out: Human Liver t1/2
Protocol: (§1) Reaction mixtures containing either mouse liver S9 (20.8 mg/mL), mouse plasma, rat liver S9 (1 mg/mL) and phosphate buffer (100 mM, pH 7.4), rat plasma, human liver S9 (1.0 mg/mL) and phosphate buffer (100 mM, pH 7.4) or human plasma were pre-incubated at 37° C. for 5 minutes. Reactions were then initiated by addition of compounds 4, 8 or 16 (1 mM in mouse, 0.5 mM in rat and human). […] The samples were analyzed by HPLC with UV detection and the resulting hydrolysis data can be seen in FIG. 12.
(§2) In all cases, the half-lives for compound 4 are shorter than that of compound 8. […] In all cases, the half-life indicates the depletion of starting material compounds. […] In human compartments, only carbonate cleavage is observed.

[3] = Prodrug hydrolysis in human plasma; type: in vitro ADME; settings: 37° C., depletion of starting material, read-out: Human Plasma t1/2
Protocol: as §1, §2

[4] = Prodrug hydrolysis in rat plasma; type: in vitro ADME; settings: 37° C., depletion of starting material, read-out: Rat Plasma t1/2
Protocol: as §1, §2

[5] = Prodrug hydrolysis in rat liver S9; type: in vitro ADME; settings: pH 7.4, rat liver S9 1 mg/mL, 37° C., depletion of starting material, read-out: Rat Liver t1/2
Protocol: as §1, §2

CD4+ T cells = test: Viability staining (Zombie Red) in single-round infectivity assay
Protocol: Peripheral blood mononuclear cells were isolated from healthy blood donors using Hypaque-Ficoll gradient centrifugation. CD4+ T cells were selected by magnetic beads (Miltenyi) and activated using anti-CD3 and anti-CD28 antibodies. Activated cells were seeded onto a 96-well plate at a concentration of 1×10^5 cells/well in RPMI1640 supplemented with 10% FBS, cytokine-rich supernatant, and 50% heat-inactivated human serum. Test compounds were added at this step and maintained throughout the culture. Cells were incubated at 37° C. for 21 hours. Pseudotype (GFP-tagged) HIV was then added to the culture via spinoculation and incubated for 3 days. Cells were then washed and stained with Zombie Red viability stain. Infectivity was quantified using flow cytometry.

UGT enzymes = test: UGT activity in human liver S9; settings: 1 mM, human liver S9 2.0 mg/mL, UDPGA 8 mM
Protocol: (§3) Reaction mixtures containing phosphate buffer (100 mM, pH 7.4), mixed pooled gender human liver S9 (2.0 mg/mL), MgCl2 (10 mM), UDPGA (8 mM), and D-saccharic acid-1,4-lactone (2 mM) were pre-incubated at 37° C. for 5 minutes. The reactions were then initiated by the addition of emtricitabine or compound 13 (1 mM). After incubation at 37° C., aliquots were taken at each time point and quenched in two volumes of ice-cold methanol. The quenched aliquots were then centrifuged at 14000 rpm for 4 minutes. The supernatant was then diluted into phosphate buffer (100 mM, pH 7.4) to yield samples with concentrations suitable for analysis. The samples were analyzed by HPLC with UV detection using the following method (0% to 100% acetonitrile in Et3NHOAc (50 mM, pH 8) gradient) over 10 minutes at a flow rate of 3 mL min^−1, held at 100% acetonitrile for 3 minutes, ramped down to 5% acetonitrile over 0.2 minutes and then held for 2.8 minutes.

CYP enzymes = test: Cytochrome P450 activity in human liver microsomes; settings: 1 mM, 2.0 mg/mL pooled mixed gender human liver microsomes
Protocol: as §3, with “liver microsomes” for “liver S9”, “mg/mL), NADP+ (1” for “mg/mL), MgCl2 (10”, “mM), glucose-6-phosphate (5” for “mM), UDPGA (8”, “and glucose-6-phosphate dehydrogenase (1.5 Unit/mL)” for “and D-saccharic acid-1,4-lactone (2 mM)”, “initiated via” for “initiated by”

[6] = Half-life measurements in human plasma (HPLC-UV); type: in vitro ADME; settings: human, plasma, 37° C., hydrolysis through two potential pathways, read-out: hydrolysis half-life in human plasma (converted)
Protocol: To evaluate the hydrolysis rates of emtricitabine compounds 9-16, HPLC coupled with UV detection was used with the following method (0% to 100% acetonitrile in Et3NHOAc (50 mM, pH 8) gradient) over 10 minutes at a flow rate of 3 mL min^−1, held at 100% acetonitrile for 3 minutes, ramped down to 5% acetonitrile over 0.2 minutes and then held for 2.8 minutes. Male human plasma (Bioreclamation) or female human skeletal muscle S9 (7.96 mg/mL, Bioreclamation) was pre-incubated at 37° C. for 5 minutes. Compounds 9-16 (1 mM) were added and the reaction was incubated at 37° C. […] The supernatant was diluted 10 fold into Tris buffer (30 mM, pH 7.4) and injected onto the HPLC for analysis.
To evaluate the hydrolysis rates of emtricitabine trimethyl lock prodrugs, HPLC coupled with UV detection was used with the following method (0% to 100% acetonitrile in Et3NHOAc (50 mM, pH 8) gradient) over 10 minutes at a flow rate of 3 mL min^−1, held at 100% acetonitrile for 3 minutes, ramped down to 5% acetonitrile over 0.2 minutes and then held for 2.8 minutes. Human plasma (Bioreclamation) or human skeletal muscle S9 (7.96 mg/mL, Bioreclamation) was pre-incubated at 37° C. for 5 minutes. Emtricitabine trimethyl lock compound 25 (1 mM) was added and the reaction was incubated at 37° C. […] The supernatant was diluted in Tris buffer (100 mM, pH 7.4) and injected onto the HPLC for analysis. […]

half-lives in human liver S9 [1]: comparable half-lives
SMILES: CCCCCCCCOC(=O)Nc1nc(=O)n([C@@H]2CS[C@H](COC(=O)C(C)C)O2)cc1F [Compound 21, ((2R,5S)-5-(5-fluoro-4-(((octyloxy)carbonyl)amino)-2-oxopyrimidin-1 (2H)-yl)-1,3-oxathiolan-2-yl)methyl isobutyrate]

Intrinsic Clearance [1]: 62.05 µL/min/mg
SMILES: CCCCCOC(=O)Nc1nc(=O)n([C@@H]2CS[C@H](COC(C)=O)O2)cc1F [Compound 17, ((2R,5S)-5-(5-fluoro-2-oxo-4-(((pentyloxy)carbonyl)amino)pyrimidin-1 (2H)-yl)-1,3-oxathiolan-2-yl)methyl acetate]
Km [1]: 1310 µM
Vmax [1]: 4877 nmol/h/mg

half-lives in human liver S9 [1]: comparable half-lives
SMILES: CCCCCCCCOC(=O)Nc1nc(=O)n([C@@H]2CS[C@H](COC(C)=O)O2)cc1F [Compound 20, ((2R,5S)-5-(5-fluoro-4-(((octyloxy)carbonyl)amino)-2-oxopyrimidin-1 (2H)-yl)-1,3-oxathiolan-2-yl)methyl acetate]

SMILES: CCCCOC(=O)Nc1nc(=O)n([C@@H]2CS[C@H](COC(=O)OCCCC)O2)cc1F [Compound 4, butyl (1-((2R,5S)-2-(((butoxycarbonyl)oxy)methyl)-1,3-oxathiolan-5-yl)-5-fluoro-2-oxo-1,2-dihydropyrimidin-4-yl)carbamate]
half-life at 0.5 mM [2]: 10.3 min
half-life at 0.5 mM [3]: 59.2 min
half-life at 0.5 mM [4]: 5.8 min
half-life at 0.5 mM [5]: 4.6 min

half-life at 0.5 mM [2]: 151 min
half-life at 0.5 mM [3]: 578 min
half-life at 0.5 mM [4]: 16.7 min
half-life at 0.5 mM [5]: 33.3 min
SMILES: CCCCCCCCOC(=O)Nc1nc(=O)n([C@@H]2CS[C@H](COC(=O)OCCCCCCCC)O2)cc1F [Compound 8, octyl (5-fluoro-1-((2R,5S)-2-((((octyloxy)carbonyl)oxy)methyl)-1,3-oxathiolan-5-yl)-2-oxo-1,2-dihydropyrimidin-4-yl)carbamate]

metabolism by UGT enzymes (UGT enzymes): not metabolized
metabolism by CYP enzymes (CYP enzymes): not metabolized
SMILES: Nc1nc(=O)n([C@@H]2CS[C@H](CO)O2)cc1F [Emtricitabine, emtricitabine]
toxicity on CD4+ T cells (viability staining) (CD4+ T cells): little to no toxicity

Intrinsic Clearance [1]: 26.33 µL/min/mg
SMILES: CCCCCOC(=O)Nc1nc(=O)n([C@@H]2CS[C@H](COC(=O)OCCCCC)O2)cc1F [Compound 5, pentyl (5-fluoro-2-oxo-1-((2R,5S)-2-((((pentyloxy)carbonyl)oxy)methyl)-1,3-oxathiolan-5-yl)-1,2-dihydropyrimidin-4-yl)carbamate]
Km [1]: 600 µM
Vmax [1]: 948 nmol/h/mg

SMILES: CC(=O)Oc1cc(C)cc(C)c1C(C)(C)CC(=O)Nc1ncnc2c1ncn2C[C@@H](C)OCP(=O)(N[C@@H](C)C(=O)OC(C)C)Oc1ccccc1 (stereo partly drawn) [Compound 26, (2S)-isopropyl (((((R)-1-(6-(3-(2-acetoxy-4,6-dimethylphenyl)-3-methylbutanamido)-9H-purin-9-yl)propan-2-yl)oxy)methyl)(phenoxy)phosphoryl)-L-alaninate]
half-life at 1 mM [6]: 66 min
